Tests used:
BRD4 D1 = settings: data from previous screen; cited from earlier work
BPTF bromodomain [1] = molecular target: T1, BPTF bromodomain (Homo sapiens, UniProt Q12830); set-up: against the bromodomains of BPTF and Plasmodium falciparum GCN5 (PfGCN5); his6; made in house; settings: cited from earlier work
BPTF bromodomain [2] = molecular target: T1, BPTF bromodomain; test: PrOF NMR (dual-protein screen of mixtures, titrations) with 5FW-BPTF; format: binding; set-up: against the bromodomains of BPTF and Plasmodium falciparum GCN5 (PfGCN5); his6; made in house; settings: hit mixture containing the fragment, 400 µM each fragment
Method: The screening workflow consists of two dependent steps: 1) a PrOF NMR screen of the 5FW-labeled proteins and a cocktail of 4–5 fragments in a single NMR tube; 2) a ^1H CPMG NMR binding assay to deconvolute the hit mixtures for each protein (Figure 1). In the first step, a dual-protein PrOF NMR spectrum was obtained in which 5FW-PfGCN5, 5FW-BPTF (~ 50 µM each) and mixtures of fragments (400 µM individual fragment) were present in the same NMR tube. […] Chemical shift perturbations indicating a ligand binding event were based on a prior cutoff of Δδ ≥ 0.030 ppm as the definition for a hit mixture. This cutoff was based on a statistical analysis of chemical shift perturbations from a prior BRD4 D1 fragment screen and are described further in the experimental section and in Table S2.
PrOF NMR. PrOF NMR spectra were obtained on a Bruker Avance III HD 500 with the 5 mm Prodigy TCI inverse cryoprobe (^19F S:N 2000:1). […] The DMSO concentration for all experiments was kept constant at 1%. […] For the PrOF NMR screen, 5FW-BPTF and 5FW-PfGCN5 (35–40 µM in 50 mM phosphate, 100 mM NaCl, pH 7.4) were tested with mixtures of 4–5 fragments, where each individual fragment was 400 µM. […] A 10 Hz line broadening was applied. Titrations were fit to Equation (2), where p is the protein concentration and L is the ligand concentration. (2) Δδ=Δδmax × (Kd+P+L ) − (((Kd + P + L )^2) − 4PL)/2P
A PrOF NMR binding event is characterized as a change in chemical shift (Δδ) from the protein-only spectrum to the protein + fragment mixture spectrum. We used a prior cutoff of Δδ ≥ 0.030 ppm as the definition of a hit mixture, based on a statistical analysis of chemical shift perturbations from a prior BRD4 D1 fragment screen.

PfGCN5 bromodomain = PfGCN5 bromodomain (Plasmodium falciparum, UniProt Q8IB67); test: 1H-15N HSQC NMR titration with PfGCN5; format: binding
Description: To cross-validate our findings, ^1H-^15N HSQC NMR was used to further examine the binding mode of 9 to PfGCN5 in the presence and absence of known ligands. The ^1H-^15N HSQC spectrum of PfGCN5 is unassigned. For ease of spectral interpretation, all resonances that were distinctly visible were assigned as 1-64. Fragment 9, GSK4027, and the acetylated peptide H2A.Z II K7,13ac were titrated against PfGCN5. At the highest ligand concentration, resonances with Δδ > x^− + 0.60*s, where x^− is the mean and s is the standard deviation at the highest concentration, were defined as significant. The correction factor of 0.60 is to compensate for only 60% of the resonances being usable for analysis. Titration of 9 with PfGCN5 gave linear and non-linear dose-dependent chemical shift perturbations. Of the five resonances with non-linear movement, only one (10) was considered to have significant movement. […] This affinity with the non-fluorine-labeled protein is similar but higher than the affinity determined by PrOF NMR. […]
^1H-^15N SOFAST HSQC.^1H-^15N SOFAST HSQC spectra were obtained on a Bruker 600 MHz Avance NEO with a CryoProbe 5 mm TCI (^1H, ^13C, ^15N, ^2H) w/ Z-gradient using Bruker’s IBS_SOFAST.x method with 32 scans, 0.05 s acquisition time, and 0.2 s delay. […] Data were processed with nmrDraw, nmrPipe, and NFRAM Sparky. Δδ^1H-^15N was calculated using Equation (3). […]

Chain of PfGCN5 bromodomain (Q8IB67 entry or part of it): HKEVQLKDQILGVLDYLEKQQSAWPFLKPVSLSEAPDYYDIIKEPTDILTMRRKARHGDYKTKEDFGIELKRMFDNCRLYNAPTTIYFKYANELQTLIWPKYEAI

In the case of `Nc1ccc2c(c1)N(C(=O)C1CC1)CCC2` [Fragment 9], the Kd (BRD4 D1) is listed as 50 µM, the “single-point PrOF NMR Δδ with BPTF” value (BPTF bromodomain [1]; 400 µM 9, previous screen) is listed as 0.453 ppm and the Kd (BPTF bromodomain [1]; via PrOF NMR) is listed as 180 µM. For the same molecule, the “Initial Mixture BPTF PrOF NMR Δδ” value (BPTF bromodomain [2]) was “++++ (++++ = Δδ > 0.2)” and the Kd (PfGCN5 bromodomain) was 7.5 µM.

Reference: publication PMC7504435, “Combined Protein- and Ligand-Observed NMR Workflow to Screen Fragment Cocktails against Multiple Proteins: A Case Study Using Bromodomains” (Molecules, 2020)
